Target: T1, human PPARδ receptor (Homo sapiens, UniProt Q03181)
T1 construct: expressed in transfected cells
T1 sequence (Q03181 211-439 limits assumed): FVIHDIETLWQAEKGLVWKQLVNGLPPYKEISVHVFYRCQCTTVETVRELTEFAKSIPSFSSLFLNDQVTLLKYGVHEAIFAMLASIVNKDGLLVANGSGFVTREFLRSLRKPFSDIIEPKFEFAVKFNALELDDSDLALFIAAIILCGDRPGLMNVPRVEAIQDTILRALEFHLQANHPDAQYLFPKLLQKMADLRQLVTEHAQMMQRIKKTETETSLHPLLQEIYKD
Assay: Cellular transactivation assay (GAL4-PPARδ chimera, luciferase reporter)
Format: cell-based
Settings: GAL4-PPARδ chimera stably expressed in CHO cells, 24 hours stimulation
Description: A cellular assay is used to identify activators of the peroxisome proliferator-activated receptor delta (PPAR-delta).
Since mammalian cells contain different endogenous nuclear receptors which may complicate an unambiguous interpretation of the results, an established chimera system is used in which the ligand binding domain of the human PPARδ receptor is fused to the DNA binding domain of the yeast transcription factor GAL4. The resulting GAL4-PPARδ chimera is co-transfected and stably expressed in CHO cells having a reporter construct.
The GAL4-PPARδ expression construct contains the ligand binding domain of PPARδ (amino acids […]), which is PCR-amplified and cloned into the vector pcDNA3.1. This vector already contains the GAL4 DNA binding domain (amino acids 1-147) of the vector pFC2-dbd (Stratagene). […]
CHO (chinese hamster ovary) cells are sown in CHO-A-SFM medium (GIBCO), supplemented by 2.5% foetal calf serum and 1% penicillin/streptomycin (GIBCO), at a cell density of 2×10^3 cells per well in a 384-well plate (Greiner). […] After a stimulation period of 24 hours, the luciferase activity is measured using a video camera. The relative light units measured give, as a function of the substance concentration, a sigmoidal stimulation curve. The EC50 values are calculated using the computer program GraphPad PRISM (Version 3.02).

## CN(CC(=O)O)c1ccc(S(=O)(=O)N2CC(C)(C)c3cc(-c4ccc(C(F)(F)F)cc4)ccc32)cc1 [Working Example 1, N-[4-({3,3-Dimethyl-5-[4-(trifluoromethyl)phenyl]-2,3-dihydro-1H-indol-1-yl}sulphonyl)phenyl]-N-methylglycine]
  EC50: 8.5 nM

— patent US20070185183A1, “Indolinesulphanilic acid amides as ppar-delta modulators” (Bayer HealthCare AG, priority 2003, published 2007)
